Legend:
MCF7 = test: Cytotoxicity against human MCF7 cells; assay type: cell-based
NCI-H460 = test: Cytotoxicity against human NCI-H460 cells; assay type: cell-based
SF-268 = test: Cytotoxicity against human SF268 cells; assay type: functional, cell-based

Row | SMILES | IC50 (MCF7) | IC50 (NCI-H460) | IC50 (SF-268)
1 | Oc1cc(O)c2c(c1)CCCCC/C=C/CCCCCCCc1cc(O)c-2c(O)c1 [DEHYDROGRAVIPHANE] | 30.7 µM | 25.4 µM | 33.4 µM
2 | CCCCCCCCCCCCCCCc1cc(O)cc(O)c1 [CARDOL] | 37 µM | 34.2 µM | 39.8 µM
3 | Oc1cc(O)cc(CCCCCCCCCCCCCCc2cc(O)cc(O)c2)c1 [BISNORSTRIATOL] | 29.2 µM | 28.8 µM | 29.8 µM
4 | COc1cc(O)cc(CCCCCCCCCCCCCCc2cc(O)cc(O)c2)c1 [BISGRAVILLOL] | 29.4 µM | 28.7 µM | 29.4 µM
5 | Oc1cc(O)cc(CCCCC/C=C/CCCCCCCc2cc(O)cc(O)c2)c1 | 28.6 µM | 27.7 µM | 30.6 µM
6 | Oc1cc(O)c2c(c1)CCCCCCCCCCCCCCc1cc(O)c-2c(O)c1 | 28.6 µM | 22.8 µM | 27.7 µM
7 | Oc1cc2cc(c1)Oc1c(O)cc(cc1O)CCCCCCCCCCCCCC2 [ROBUSTOL] | 32.4 µM | 24 µM | 32.7 µM
8 | Oc1cc2cc(c1)Oc1c(O)cc(cc1O)CCCCCCC/C=C/CCCCC2 [DEHYDROROBUSTOL A] | 31.8 µM | 28 µM | 33.1 µM
9 | Oc1cc2cc(c1)Oc1c(O)cc(cc1O)[C@H](O)CCCCCC/C=C/CCCCC2 [DEHYDROGRAVICYCLE] | 30 µM | 27.9 µM | 31.3 µM
10 | Oc1cc2cc(c1)Oc1c(O)cc(cc1O)[C@H](O)CCCCCCCCCCCCC2 | 30.6 µM | 27 µM | 32.1 µM
11 | COc1cc(O)cc2c1-c1c(O)cc(cc1O)CCCCCCC/C=C/CCCCC2 | 29.3 µM | 27.9 µM | 29.1 µM
12 | COc1cc(O)cc(CCCCCCC/C=C/CCCCCc2cc(O)cc(O)c2)c1 [DEHYDROBISGRAVILLOL] | 29.8 µM | 27 µM | 30.2 µM
13 | COc1cc(O)cc2c1-c1c(O)cc(cc1O)CCCCCCCCCCCCCC2 | 30.8 µM | 28.9 µM | 31.1 µM

Source: ChEMBL document CHEMBL1141371, “Cytotoxic 5-alkylresorcinol metabolites from the leaves of Grevillea robusta” (J Nat Prod, 2007)
